In patent US20250171457A1, “NITROGEN-CONTAINING HETEROCYCLIC COMPOUND HAVING NRF2 ACTIVATION EFFECT” (CHUGAI SEIYAKU KABUSHIKI KAISHA, priority 2022, published 2025):
Where two headings read alike, the source gives them in different places.

What was measured:
[1] = tested on: Nrf2 transcriptional activity (pARE-Luc reporter) in HepG2 cells; assay: In vitro Nrf2 transcriptional activity measurement by ARE-dependent reporter assay in HepG2 cell; format: cell-based, human
Outline: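 HepG2 cells transfected with pGL4.37 (pARE-Luc), replated onto compound and incubated 4 h at 37° C; luciferase read by Bright-Glo luminescence. Response normalized to 100% set by a reference compound at 3.75 μM; EC50 from dose-response curve.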

[2] = tested on: Nqo1 (NAD(P)H quinone dehydrogenase 1) mRNA, Nrf2 downstream molecule; assay: In vivo Nrf2 transcriptional activity measurement (Nqo1 mRNA in organs by qPCR); details: Mus musculus, C57BL/6J mice, 7 to 8 hours
Protocol: Test Example 2: In Vivo Nrf2 Transcriptional Activity Measurement
A test compound (solvent: 10 vol % dimethyl sulfoxide/50 mM glycine/32 mM sodium hydroxide/physiological saline) was administered to C57BL/6J mice (7-8 weeks old), which were euthanized by whole blood collection under isoflurane anesthesia 7 to 8 hours later, followed by the collection of various organs. mRNA was purified from the collected organs, and the mRNA expression level of Mapk1 as an internal control and the mRNA expression level of Nqo1 (NAD(P)H quinone dehydrogenase 1) as a typical Nrf2 downstream molecule were each measured by qPCR. The Nqo1 mRNA expression level was quantified by comparative CT, and an expression level ratio to a non-administration group was calculated. The administration of the test compound elevated the Nqo1 mRNA expression level in the various organs, confirming that the test compound also has a Nrf2-activating effect in vivo.

[3] = Homo sapiens, HepG2 cells transfected with pARE-Luc, 4 hours at 37° C., luciferase activity of Example 1-54 or Example 17-23 at 3.75 μM defined as 100%
[4] = ip, Intraperitoneal, kidney, read-out: Nqo1 mRNA expression level ratio to non-administration group, Kidney
[5] = ip, Intraperitoneal, liver, read-out: Nqo1 mRNA expression level ratio to non-administration group, Liver
[6] = ip, Intraperitoneal, lung, read-out: Nqo1 mRNA expression level ratio to non-administration group, Lung
[7] = Oral, kidney, read-out: Nqo1 mRNA expression level ratio to non-administration group, Kidney
[8] = Oral, liver, read-out: Nqo1 mRNA expression level ratio to non-administration group, Liver
[9] = Oral, lung, read-out: Nqo1 mRNA expression level ratio to non-administration group, Lung

| Compound | EC50 [1, 3] | fold induction at 10 mg/kg [2, 4] | fold induction at 10 mg/kg [2, 5] | fold induction at 10 mg/kg [2, 6] | fold induction at 30 mg/kg [2, 7] | fold induction at 30 mg/kg [2, 8] | fold induction at 30 mg/kg [2, 9] | EC50 ([1]; HepG2 cells, pARE-Luc reporter, 4 hours, 100% = Example 1-54 or Example 17-23 at 3.75 μM (repeat print of Table 20-1)) | fold induction at 15 mg/kg [2, 4] | fold induction at 15 mg/kg [2, 5] | fold induction at 15 mg/kg [2, 6] | fold induction at 15 mg/kg [2, 7] | fold induction at 15 mg/kg [2, 8] | fold induction at 15 mg/kg [2, 9] |
| --- | --- | --- | --- | --- | --- | --- | --- | --- | --- | --- | --- | --- | --- | --- |
| CO[C@@H]1CN(c2cc(Cl)c(C(=O)N3COc4c(cccc4-c4cc(N5C6CCC5COC6)c(C(=O)O)cc4F)C3)c(Cl)c2)[C@@H]1C [Compound 1-4, 4-[3-[2,6-Dichloro-4-[(2R,3R)-3-methoxy-2-methylazetidin-1-yl]benzoyl]-2,4-dihydro-1,3-benzoxazin-8-yl]-5-fluoro-2-(3-oxa-8-azabicyclo[3.2.1]octan-8-yl)benzoic acid] | 1.6 nM | 4.4 | 6.5 | 13 | 5 | 8.1 | 20 | – | – | – | – | – | – | – |
| O=C(O)c1cc(F)c(-c2cccc3c2OCN(C(=O)c2c(Cl)cc(N4CC5(CCOCC5)C4)cc2Cl)C3)cc1N1C2CCC1COC2 [Compound 1-18, 4-[3-[2,6-Dichloro-4-(7-oxa-2-azaspiro[3.5]nonan-2-yl)benzoyl]-2,4-dihydro-1,3-benzoxazin-8-yl]-5-fluoro-2-(3-oxa-8-azabicyclo[3.2.1]octan-8-yl)benzoic acid] | 4.3 nM | 2.5 | 6 | 8.7 | – | – | – | – | – | – | – | – | – | – |
| O=C(O)c1cc(F)c(-c2cccc3c2OCN(C(=O)c2c(Cl)cc(N4CC5(CC(OC(F)F)C5)C4)cc2Cl)C3)cc1N1C2CCC1COC2 [Compound 1-21, 4-[3-[2,6-Dichloro-4-[6-(difluoromethoxy)-2-azaspiro[3.3]heptan-2-yl]benzoyl]-2,4-dihydro-1,3-benzoxazin-8-yl]-5-fluoro-2-(3-oxa-8-azabicyclo[3.2.1]octan-8-yl)benzoic acid] | 2.9 nM | 3.7 | 4.7 | 10 | – | – | – | – | – | – | – | – | – | – |
| C[C@@H]1CN(C)CCN1c1cc(Cl)c(C(=O)N2COc3c(cccc3-c3cc(N4C5CCC4COC5)c(C(=O)O)cc3F)C2)c(Cl)c1 [Compound 1-33, 4-[3-[2,6-Dichloro-4-[(2R)-2,4-dimethylpiperazin-1-yl]benzoyl]-2,4-dihydro-1,3-benzoxazin-8-yl]-5-fluoro-2-(3-oxa-8-azabicyclo[3.2.1]octan-8-yl)benzoic acid] | – | 3.7 | 5.5 | 13 | 5.1 | 5.2 | 18 | 1.9 nM | – | – | – | – | – | – |
| COCCN1CCN(c2cc(Cl)c(C(=O)N3COc4c(cccc4-c4cc(N5CCOCC5)c(C(=O)O)cc4F)C3)c(Cl)c2)CC1 [Compound 1-54, 4-[3-[2,6-Dichloro-4-[4-(2-methoxyethyl)piperazin-1-yl]benzoyl]-2,4-dihydro-1,3-benzoxazin-8-yl]-5-fluoro-2-morpholin-4-ylbenzoic acid] | 1.5 nM | 4.6 | 6.7 | 18 | 4.9 | 7.4 | 20 | – | – | – | – | – | – | – |
| COC1CC2(C1)CN(c1cc(Cl)c(C(=O)N3COc4c(cccc4-c4ccc(C(=O)O)c(N5C6CCC5COC6)c4)C3)c(Cl)c1)C2 [Compound 1-83, 4-[3-[2,6-Dichloro-4-(6-methoxy-2-azaspiro[3.3]heptan-2-yl)benzoyl]-2,4-dihydro-1,3-benzoxazin-8-yl]-2-(3-oxa-8-azabicyclo[3.2.1]octan-8-yl)benzoic acid] | 2.4 nM | – | – | – | – | – | – | – | 4.7 | 6.5 | 21 | – | – | – |
| COC1CC2(C1)CN(c1ccc(C(=O)N3COc4c(cccc4-c4cc(N5C6CCC5COC6)c(C(=O)O)cc4F)C3)c(Cl)c1)C2 [Compound 1-88, 4-[3-[2-Chloro-4-(6-methoxy-2-azaspiro[3.3]heptan-2-yl)benzoyl]-2,4-dihydro-1,3-benzoxazin-8-yl]-5-fluoro-2-(3-oxa-8-azabicyclo[3.2.1]octan-8-yl)benzoic acid] | 2.1 nM | – | – | – | – | – | – | – | 3 | 4.3 | 6.1 | 3.4 | 5.4 | 8.9 |
| COc1ccc(-c2cc(Cl)c(C(=O)N3COc4c(cccc4-c4cc(N5C6CCC5COC6)c(C(=O)O)cc4F)C3)c(Cl)c2)cn1 [Compound 2-2, 4-[3-[2,6-Dichloro-4-(6-methoxypyridin-3-yl)benzoyl]-2,4-dihydro-1,3-benzoxazin-8-yl]-5-fluoro-2-(3-oxa-8-azabicyclo[3.2.1]octan-8-yl)benzoic acid] | 6.5 nM | 5.3 | 5.8 | 17 | – | – | – | – | – | – | – | – | – | – |
| CCN1CCN(c2cc(Cl)c(C(=O)N3COc4c(cccc4-c4cc(N5C6CCC5COC6)c(C(=O)O)cc4F)C3)c(Cl)c2)CC1 [Compound 4-8, 4-[3-[2,6-Dichloro-4-(4-ethylpiperazin-1-yl)benzoyl]-2,4-dihydro-1,3-benzoxazin-8-yl]-5-fluoro-2-(3-oxa-8-azabicyclo[3.2.1]octan-8-yl)benzoic acid] | 5.8 nM | 3.4 | 6.7 | 6.2 | – | – | – | – | – | – | – | – | – | – |
| COCCOc1cc(Cl)c(C(=O)N2COc3c(cccc3-c3cc(N4C5CCC4COC5)c(C(=O)O)cc3F)C2)c(Cl)c1 [Compound 4-37, 4-[3-[2,6-Dichloro-4-(2-methoxyethoxy)benzoyl]-2,4-dihydro-1,3-benzoxazin-8-yl]-5-fluoro-2-(3-oxa-8-azabicyclo[3.2.1]octan-8-yl)benzoic acid] | 6.3 nM | 4 | 8 | 5.4 | – | – | – | – | – | – | – | – | – | – |
| COC1(OC)CN(c2cc(Cl)c(C(=O)N3COc4c(cccc4-c4cc(N5C6CCC5COC6)c(C(=O)O)cc4F)C3)c(Cl)c2)C1 [Compound 5-1, 4-[3-[2,6-Dichloro-4-(3,3-dimethoxyazetidin-1-yl)benzoyl]-2,4-dihydro-1,3-benzoxazin-8-yl]-5-fluoro-2-(3-oxa-8-azabicyclo[3.2.1]octan-8-yl)benzoic acid] | 1.6 nM | 4.4 | 6.8 | 19 | 5.1 | 3.9 | 17 | – | – | – | – | – | – | – |
| O=C(O)c1cc(F)c(-c2cccc3c2OCN(C(=O)c2c(Cl)cc(N4CC5(C4)OCCCO5)cc2Cl)C3)cc1N1C2CCC1COC2 [Compound 5-2, 4-[3-[2,6-Dichloro-4-(5,9-dioxa-2-azaspiro[3.5]nonan-2-yl)benzoyl]-2,4-dihydro-1,3-benzoxazin-8-yl]-5-fluoro-2-(3-oxa-8-azabicyclo[3.2.1]octan-8-yl)benzoic acid] | 1.3 nM | 4.3 | 6.9 | 20 | 4 | 6.9 | 20 | – | – | – | – | – | – | – |
| CC1COC2(CN(c3cc(Cl)c(C(=O)N4COc5c(cccc5-c5cc(N6C7CCC6COC7)c(C(=O)O)cc5F)C4)c(Cl)c3)C2)OC1 [Compound 5-7, 4-[3-[2,6-Dichloro-4-(7-methyl-5,9-dioxa-2-azaspiro[3.5]nonan-2-yl)benzoyl]-2,4-dihydro-1,3-benzoxazin-8-yl]-5-fluoro-2-(3-oxa-8-azabicyclo[3.2.1]octan-8-yl)benzoic acid] | 1.7 nM | 4 | 5.4 | 18 | – | – | – | – | – | – | – | – | – | – |
